According to ChEMBL document CHEMBL2390863, “Synthesis and evaluation of 4-substituted coumarins as novel acetylcholinesterase inhibitors” (Eur J Med Chem, 2013):

How the values were obtained:
Cholinesterase = Cholinesterase (Equus caballus, UniProt P81908); experiment: Inhibition of equine serum BChE using butylthiocholine iodide as substrate preincubated for 10 mins prior to substrate addition by Ellman's method
Acetylcholinesterase = Acetylcholinesterase (Electrophorus electricus, UniProt O42275); experiment: Inhibition of electric eel AChE using acetylthiocholine iodide as substrate preincubated for 10 mins prior to substrate addition by Ellman's method
[1] = Selectivity ratio of IC50 for equine serum BChE to IC50 for electric eel AChE
[2] = Antioxidant activity assessed as Fe2+ formation by FRAP assay; assay type: functional

Chain of Cholinesterase (P81908 whole entry): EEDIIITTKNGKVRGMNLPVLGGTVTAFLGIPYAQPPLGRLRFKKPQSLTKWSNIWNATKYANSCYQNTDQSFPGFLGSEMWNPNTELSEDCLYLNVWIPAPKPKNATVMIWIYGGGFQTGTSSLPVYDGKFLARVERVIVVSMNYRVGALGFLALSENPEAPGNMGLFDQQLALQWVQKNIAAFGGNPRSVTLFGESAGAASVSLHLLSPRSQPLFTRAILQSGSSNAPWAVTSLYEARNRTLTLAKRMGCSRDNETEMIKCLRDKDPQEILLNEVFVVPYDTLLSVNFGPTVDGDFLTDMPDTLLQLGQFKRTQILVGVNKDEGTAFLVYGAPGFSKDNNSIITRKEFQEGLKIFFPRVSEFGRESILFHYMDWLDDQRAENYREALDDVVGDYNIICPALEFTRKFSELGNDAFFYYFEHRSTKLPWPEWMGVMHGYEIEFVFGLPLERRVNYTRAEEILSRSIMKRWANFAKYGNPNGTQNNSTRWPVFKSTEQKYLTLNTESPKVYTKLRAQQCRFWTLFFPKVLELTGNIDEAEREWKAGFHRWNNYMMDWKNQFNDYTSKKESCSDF
Chain of Acetylcholinesterase (O42275 whole entry): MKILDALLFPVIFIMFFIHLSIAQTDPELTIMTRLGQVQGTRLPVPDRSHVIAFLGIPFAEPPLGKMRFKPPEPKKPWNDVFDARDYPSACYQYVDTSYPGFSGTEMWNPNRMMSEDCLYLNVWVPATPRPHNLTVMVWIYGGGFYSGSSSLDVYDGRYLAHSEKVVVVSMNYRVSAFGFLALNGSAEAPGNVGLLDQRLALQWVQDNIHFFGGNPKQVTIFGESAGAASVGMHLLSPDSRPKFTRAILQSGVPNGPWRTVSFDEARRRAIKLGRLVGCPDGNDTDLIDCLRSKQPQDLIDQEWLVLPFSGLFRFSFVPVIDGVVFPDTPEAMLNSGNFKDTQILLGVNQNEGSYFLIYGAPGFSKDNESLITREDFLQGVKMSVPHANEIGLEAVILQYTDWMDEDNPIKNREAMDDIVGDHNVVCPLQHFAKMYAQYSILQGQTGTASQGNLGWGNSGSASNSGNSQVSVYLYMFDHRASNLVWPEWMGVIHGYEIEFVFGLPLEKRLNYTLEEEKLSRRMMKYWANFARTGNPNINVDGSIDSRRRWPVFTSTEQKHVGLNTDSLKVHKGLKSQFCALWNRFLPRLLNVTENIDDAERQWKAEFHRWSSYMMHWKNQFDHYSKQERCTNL

Row | Structure (SMILES) | IC50 (Cholinesterase) [µM] | IC50 (Acetylcholinesterase) [µM] | Ratio IC50 [1] | Activity [2] [mmol/g]
1 | O=C(COc1cc(=O)oc2ccccc12)N1CCC(O)(c2ccc(Br)cc2)CC1 | > 100 | > 100 | – | –
2 | O=C(COc1cc(=O)oc2ccccc12)N1CCN(c2ccc(Cl)c(Cl)c2)CC1 | 89 | 2.3 | 34 | –
3 | O=C1O[C@H]([C@@H](O)CO)C(O)=C1O | – | – | – | 2250
4 | O=C(CCCOc1cc(=O)oc2ccccc12)N1CCC(O)(c2ccc(Br)cc2)CC1 | > 100 | > 100 | – | –
5 | O=C(CCCOc1cc(=O)oc2ccccc12)N1CCN(c2ccc(F)cc2)CC1 | > 100 | > 100 | – | –
6 | O=C(COc1cc(=O)oc2ccccc12)N1CCN(c2ccc(F)cc2)CC1 | 76 | 2.1 | 34 | –
7 | O=C(COc1cc(=O)oc2ccccc12)N1CCN(c2ccccc2O)CC1 | > 100 | 21.2 | – | 840
8 | O=C(CCCOc1cc(=O)oc2ccccc12)N1CCN(c2ccccc2O)CC1 | > 100 | > 100 | – | 770
9 | O=C(CCCOc1cc(=O)oc2ccccc12)NC1CCN(Cc2ccccc2)CC1 | 41 | 2.37 | – | –
10 | O=C(CCCOc1cc(=O)oc2ccccc12)N1CCC(Cc2ccccc2)CC1 | 76 | 8 | – | –
11 | O=C(CCCOc1cc(=O)oc2ccccc12)N1CCN(c2ccccc2F)CC1 | > 100 | > 100 | – | –
12 | COc1ccc(CCNC(=O)CCCOc2cc(=O)oc3ccccc23)cc1OC | > 100 | > 100 | – | –
13 | O=C(CCCOc1cc(=O)oc2ccccc12)N1CCN(c2ccc(Cl)c(Cl)c2)CC1 | > 100 | > 100 | – | –
14 | O=C(CCCOc1cc(=O)oc2ccccc12)N1CCC(O)(c2ccc(Cl)cc2)CC1 | > 100 | > 100 | – | –
15 | O=C(COc1cc(=O)oc2ccccc12)N1CCC(O)(c2ccc(Cl)cc2)CC1 | > 100 | > 100 | – | –
16 | O=C(COc1cc(=O)oc2ccccc12)NC1CCN(Cc2ccccc2)CC1 | 45 | 1.2 | 37 | –
17 | O=C(CCCOc1cc(=O)oc2ccccc12)N1CCN(c2ccccc2)CC1 | > 100 | > 100 | – | –
18 | O=C(COc1cc(=O)oc2ccccc12)N1CCN(c2ccccc2)CC1 | > 100 | 2.9 | 34 | –
19 | O=C(COc1cc(=O)oc2ccccc12)N1CCN(c2ccccc2F)CC1 | > 100 | 12.1 | – | –
20 | O=C(COc1cc(=O)oc2ccccc12)N1CCC(Cc2ccccc2)CC1 | 65 | 3.4 | – | –
